From paper PMC2074469

Tests used:
aromatase [1] = biological target: T1, aromatase (Homo sapiens, UniProt P11511); assay: Serum oestrone suppression, trial 1 (3 mg of ZD1033 vs placebo); format: in vivo
T1 construct: from tissue; host or cells: peripheral tissues of healthy post-menopausal female volunteers (in vivo; serum oestrogens measured)
T1 sequence (P11511 1-503): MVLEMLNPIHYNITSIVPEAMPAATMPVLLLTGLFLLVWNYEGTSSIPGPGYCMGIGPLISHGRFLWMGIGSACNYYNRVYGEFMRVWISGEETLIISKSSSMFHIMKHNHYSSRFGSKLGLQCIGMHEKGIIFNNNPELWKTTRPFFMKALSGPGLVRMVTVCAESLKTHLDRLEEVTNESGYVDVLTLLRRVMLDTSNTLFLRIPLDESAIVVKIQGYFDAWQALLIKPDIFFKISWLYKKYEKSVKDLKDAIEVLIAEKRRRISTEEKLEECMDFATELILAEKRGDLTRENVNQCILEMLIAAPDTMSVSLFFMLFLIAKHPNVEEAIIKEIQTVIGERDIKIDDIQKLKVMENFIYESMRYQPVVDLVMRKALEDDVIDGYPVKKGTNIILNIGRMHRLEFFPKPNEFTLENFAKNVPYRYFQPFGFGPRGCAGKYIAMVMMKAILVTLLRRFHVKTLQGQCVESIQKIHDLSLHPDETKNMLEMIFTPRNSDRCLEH
Protocol: (§1) Summary Two multiple-dose studies were conducted in healthy post-menopausal female volunteers to investigate the pharmacokinetics and effects on endocrinology of Arimidex (ZD1033). Volunteers in the first trial were dosed with 3 mg of ZD1033 daily over 10 days to assess the effects on endocrinology of ZD1033 and establish the pharmacokinetic profile. In the second trial volunteers received 14 daily doses of either 0.5 or 1.0 mg of ZD1033 to assess the pharmacokinetics of ZD1033 and the effects of low doses of ZD1033 on serum oestradiol concentrations. […] Keywords: Arimidex; aromatase inhibitor; oestrogen Breast cancer is the most common type of cancer in women, accounting for 10% of all female cancers. […] ZD1033 is an achiral benzyltriazole derivative, 2,2[5-(1 H- 12,4-triazol- I -ylmethyl)- 1,3-phenylene] bis (2- methyl-propriononitrile) (Figure 1). […] ZD1033 is currently being evaluated in identical phase III efficacy and tolerability studies vs megestrol acetate in post- menopausal women with advanced breast cancer in the USA and Europe. This paper describes two studies that investigated the pharmacokinetic profile, selectivity, tolerability and efficacy in oestradiol suppression of multiple doses of ZD1033. The objective of the studies was to determine the minimum dose required for maximal suppression of circulating oestradiol, while retaining selectivity for the aromatase enzyme. […] Methods The two trials were randomised, double-blind, placebo- controlled multiple-dose studies in healthy post-menopausal female volunteers aged between 45 and 62 years (inclusive). Both trials had the same entry criteria and were of similar design. In the first study (trial 1), a total of eight volunteers were given eight doses of 3 mg of ZD1033 over 10 days to assess tolerability, pharmacokinetics and effects on endocrinology. In the second study (trial 2) a total of 14 volunteers were given 0.5 and 1 mg doses of ZD1033 daily for 14 days to assess the tolerability, pharmacokinetics and effect on serum oestradiol concentrations only. […] The key inclusion criteria were: at least one intact ovary; cervical smear negative for malignancy within the previous 12 months; normal clinical laboratory parameters and; normal clinical examination. Key exclusion criteria were a history of malignant breast disease or previous hysterectomy as a result of malignancy. […] A dose of 3 mg ZD1033 or matching placebo was then given on the following 7 consecutive days (study days 4-10). […] Samples for assay of serum aldosterone, cortisol, 17- hydroxyprogesterone (17-HP), dehydroepiandrosterone sul- phate (DHEA-S), luteinising hormone (LH), FSH and adrenocorticotrophic hormone (ACTH) were collected before and 3 h after dosing on study days 1 and 10 of both treatment periods. Additional samples for cortisol assay were also collected before dosing on study days 3, 5, 7 and 9 in both treatment periods. An ACTH stimulation test was performed 3 h after the dose on study day 10.

aromatase [2] = biological target: T1, aromatase; assay: Serum oestradiol suppression in healthy post-menopausal female volunteers (trials 1 and 2); format: in vivo; settings: for women with serum oestradiol below the limit of detection of the assay: limit of detection 3 pmol l-1; for mean BS oestradiol concentration 24 h after dosing on days 13 and 14, adjusted geometric mean / BS oestradiol AUC days 1-14, adjusted geometric mean: baseline-scaled; for BS oestradiol AUC days 1-14, adjusted geometric mean: normalised by time; for mean post-dose scaled oestradiol suppression compared with baseline: mean of 24 h after doses on days 13 and 14
Protocol: as §1

[3] = human, in vivo
Protocol: (§2) Summary Two multiple-dose studies were conducted in healthy post-menopausal female volunteers to investigate the pharmacokinetics and effects on endocrinology of Arimidex (ZD1033). Volunteers in the first trial were dosed with 3 mg of ZD1033 daily over 10 days to assess the effects on endocrinology of ZD1033 and establish the pharmacokinetic profile. In the second trial volunteers received 14 daily doses of either 0.5 or 1.0 mg of ZD1033 to assess the pharmacokinetics of ZD1033 and the effects of low doses of ZD1033 on serum oestradiol concentrations. […] Keywords: Arimidex; aromatase inhibitor; oestrogen Breast cancer is the most common type of cancer in women, accounting for 10% of all female cancers. […] ZD1033 is an achiral benzyltriazole derivative, 2,2[5-(1 H- 12,4-triazol- I -ylmethyl)- 1,3-phenylene] bis (2- methyl-propriononitrile) (Figure 1). […] ZD1033 is currently being evaluated in identical phase III efficacy and tolerability studies vs megestrol acetate in post- menopausal women with advanced breast cancer in the USA and Europe. This paper describes two studies that investigated the pharmacokinetic profile, selectivity, tolerability and efficacy in oestradiol suppression of multiple doses of ZD1033. The objective of the studies was to determine the minimum dose required for maximal suppression of circulating oestradiol, while retaining selectivity for the aromatase enzyme. […]

clinical = settings: female, human, plasma, oral; for half-life: mean half-life
[4] = system: steroid response to ACTH challenge; assay: ACTH stimulation test (synacthen), trial 1 study day 10; format: in vivo, human; settings: 3 mg, 30 and 60 min after ACTH
Protocol: as §2

gonadotrophin release = assay: Serum pituitary hormones, trial 1 (ACTH, LH, FSH); format: in vivo, human; settings: for scaled FSH: percentage change of scaled geometric mean relative to placebo / scaled LH: percentage change of scaled geometric mean relative to placebo: 3 mg
Protocol: as §1

adrenal steroidogenesis = assay: Serum adrenal steroid concentrations, trial 1 (cortisol, aldosterone, 17-HP, androstenedione, DHEA-S); format: in vivo, human
Protocol: as §1

[5] = system: adrenal gland steroidogenesis; settings: cited from earlier work
[6] = cited from earlier work
aromatase [7] = biological target: T1, aromatase; settings: cited from earlier work
[8] = 3 mg vs placebo, not statistically significant

SMILES: CC(C)(C#N)c1cc(Cn2cncn2)cc(C(C)(C)C#N)c1 [ZD1033, 2,2[5-(1 H-12,4-triazol-I -ylmethyl)-1,3-phenylene] bis (2-methyl-propriononitrile)]
- scaled oestrone: percentage reduction in geometric mean relative to placebo (aromatase [1]; 96 h after dose on day 10): 39.7%
- scaled oestrone: percentage reduction in geometric mean relative to placebo (aromatase [1]; Day 2): 36.2%
- scaled oestrone: percentage reduction in geometric mean relative to placebo (aromatase [1]; Day 3): 29.4%
- scaled oestrone: percentage reduction in geometric mean relative to placebo (aromatase [1]; Day 4): 34.6%
- scaled oestrone: percentage reduction in geometric mean relative to placebo (aromatase [1]; Day 6): 41.1%
- scaled oestrone: percentage reduction in geometric mean relative to placebo (aromatase [1]; Day 8): 34.8%
- scaled oestrone: percentage reduction in geometric mean relative to placebo (aromatase [1]; Day 10): 44.9%
- maximal suppression of mean serum oestrone compared with placebo values (aromatase [1]; from study day 6 onwards): approximately 40%
- recovery of serum oestrone after the last dose (aromatase [1]; up to 96 h after the last dose): no recovery apparent by 96 h after the last dose
- reduction in serum oestradiol levels (to the limit of detection of the available assay) (aromatase [2]; 1 mg daily p.o.): > 80%
- reduction in concentration of serum oestradiol of baseline following multiple dosing (aromatase [2]; all three doses (0.5, 1.0, 3 mg daily)): approximately 80%
- minimal dose required for maximal suppression of oestradiol (aromatase [2]; from number of volunteers below assay limit of detection 24 h after last dose): 1.0 mg
- decrease of oestradiol concentration compared with placebo values (aromatase [2]; trial 1, 3 mg daily days 4-10, by day 8, P = 0.004): approximately 80%
- oestradiol suppression compared with placebo values (aromatase [2]; trial 1, 3 mg, 24 h after the last dose): 70%
- reduction of mean serum oestradiol concentration compared with placebo (aromatase [2]; trial 1, 3 mg, by 48 h after the first dose, P = 0.001): approximately 70%
- recovery of serum oestradiol after first dose (aromatase [2]; trial 1, single 3 mg dose, up to 72 h): no recovery apparent by 72 h
- reduction of mean scaled oestradiol AUC 24 h after dosing on days 1-14 (aromatase [2]; trial 2, 0.5 mg daily): 82%
- women with serum oestradiol below the limit of detection of the assay (aromatase [2]; trial 2, 0.5 mg daily, 24 h after the last dose): one out of six
- mean post last dose oestradiol concentration (aromatase [2]; trial 2, 0.5 mg daily, baseline mean 46 pmol l-1): 5.9 pmol/L
- mean BS oestradiol concentration 24 h after dosing on days 13 and 14, adjusted geometric mean (aromatase [2]; trial 2, 0.5 mg daily): 0.156
- BS oestradiol AUC days 1-14, adjusted geometric mean (aromatase [2]; trial 2, 0.5 mg daily): 0.175
- mean post-dose scaled oestradiol suppression compared with baseline (aromatase [2]; trial 2, 0.5 mg daily): 84%
- reduction of mean scaled oestradiol AUC 24 h after dosing on days 1-14 (aromatase [2]; trial 2, 1.0 mg daily): 84%
- women with serum oestradiol below the limit of detection of the assay (aromatase [2]; trial 2, 1 mg daily, 24 h after the last dose): five out of seven
- mean post last dose oestradiol concentration (aromatase [2]; trial 2, 1.0 mg daily, baseline mean 28 pmol l-1): 3.2 pmol/L
- mean BS oestradiol concentration 24 h after dosing on days 13 and 14, adjusted geometric mean (aromatase [2]; trial 2, 1.0 mg daily): 0.138
- BS oestradiol AUC days 1-14, adjusted geometric mean (aromatase [2]; trial 2, 1.0 mg daily): 0.160
- mean post-dose scaled oestradiol suppression compared with baseline (aromatase [2]; trial 2, 1.0 mg daily): 86%
- duration of suppression of mean oestradiol concentrations (aromatase [2]; trial 2, 0.5 and 1 mg daily for 14 days): remained suppressed from 3 h after the first dose to 6 days after the last dose
- treatment effect (ratio 0.5 - 1.0 mg), BS oestradiol AUC days 1-14 (aromatase [2]; trial 2, 95% confidence (0.52, 2.30), P 0.794): 1.09
- treatment effect (ratio 0.5 - 1.0 mg), mean BS oestradiol days 13 and 14 (aromatase [2]; trial 2, 95% confidence (0.55, 2.33), P 0.713): 1.13
- recovery in oestradiol after the last dose (aromatase [2]; up to 144 h after the last dose): no recovery
- changes in blood pressure, pulse rate or ECG [3]: no evidence of changes
- Cmax (clinical; 0.5 mg): 5.97 ng/mL
- Tmax (clinical; 0.5 mg): 2 h
- half-life (clinical; 0.5 mg): 45.7 h
- Cmax (clinical; 1 mg): 13.7 ng/mL
- Tmax (clinical; 1 mg): 2 h
- half-life (clinical; 1 mg): 40.6 h
- Tmax (clinical; 3 mg): 3 h
- half-life (clinical; 3 mg, after the first dose of 3 mg): 50.7 h
- half-life (clinical; 3 mg, after the last dose of 3 mg): 45.4 h
- difference of 17-HP after ACTH stimulation from values obtained on placebo [4]: up to 12%
- difference of cortisol after ACTH stimulation from values obtained on placebo [4]: up to 12%
- effect on ACTH, LH or FSH (gonadotrophin release; 3 mg vs placebo): None of the data suggested an effect
- scaled FSH: percentage change of scaled geometric mean relative to placebo (gonadotrophin release; Day 1, 3 h after dose): 0.01%
- scaled LH: percentage change of scaled geometric mean relative to placebo (gonadotrophin release; Day 1, 3 h after dose): -9.5%
- scaled FSH: percentage change of scaled geometric mean relative to placebo (gonadotrophin release; Day 10, 3 h after dose): -3.4%
- scaled LH: percentage change of scaled geometric mean relative to placebo (gonadotrophin release; Day 10, 3 h after dose): 12.2%
- scaled FSH: percentage change of scaled geometric mean relative to placebo (gonadotrophin release; Day 10, pre-dose): 1.54%
- scaled LH: percentage change of scaled geometric mean relative to placebo (gonadotrophin release; Day 10, pre-dose): -9.3%
- alteration in mean serum concentration of DHEA-S relative to placebo (adrenal steroidogenesis; 3 mg): No clinically significant alterations
- change in mean serum concentration of cortisol (adrenal steroidogenesis; 3 mg vs placebo): No statistically significant changes
- change in mean serum concentration of 17-HP (adrenal steroidogenesis; [8]): no consistent changes
- change in mean serum concentration of aldosterone (adrenal steroidogenesis; [8]): no consistent changes
- change in mean serum concentration of androstenedione (adrenal steroidogenesis; [8]): no consistent changes
- scaled 17-HP: percentage change of scaled geometric mean relative to placebo (adrenal steroidogenesis; 3 mg, Day 1, 3 h after dose): -26.9%
- scaled aldosterone: percentage change of scaled geometric mean relative to placebo (adrenal steroidogenesis; 3 mg, Day 1, 3 h after dose): -12.9%
- scaled 17-HP: percentage change of scaled geometric mean relative to placebo (adrenal steroidogenesis; 3 mg, Day 10, 3 h after dose): 48.9%
- scaled aldosterone: percentage change of scaled geometric mean relative to placebo (adrenal steroidogenesis; 3 mg, Day 10, 3 h after dose): 21.0%
- scaled 17-HP: percentage change of scaled geometric mean relative to placebo (adrenal steroidogenesis; 3 mg, Day 10, pre-dose): 3.8%
- scaled aldosterone: percentage change of scaled geometric mean relative to placebo (adrenal steroidogenesis; 3 mg, Day 10, pre-dose): 24.6%

SMILES: CCC1(c2ccc(N)cc2)CCC(=O)NC1=O (centres unmarked) [aminoglutethimide]
- selectivity for the aromatase enzyme ([5]; 250 mg q.i.d., also inhibits adrenal gland steroidogenesis, ref Lonning and Johannessen, 1991): non-selective
- toxicity ([6]; ref Lonning and Johannessen, 1991): marked toxicity

SMILES: C[C@]12CCC(=O)C(O)=C1CC[C@@H]1[C@@H]2CC[C@]2(C)C(=O)CC[C@@H]12 [formestane]
- adverse reactions ([6]; 250 mg i.m. once every 2 weeks, ref Hoffken et al., 1993): injection site reactions
- oestradiol suppression (aromatase [7]; in vivo): 49- 64%

SMILES: N#Cc1ccc(C(c2ccc(C#N)cc2)n2cncn2)cc1 [letrozole]
- selectivity: interference with adrenal steroidogenesis ([5]; in vivo): no reports of letrozole interfering
- reduction in oestradiol levels (aromatase [7]; ref Iveson et al., 1993): up to 86%
